{"source": "patent US20250288599A1", "about": "“PHARMACEUTICAL COMPOSITIONS AND METHODS FOR TREATING OSTEOARTHRITIS” (INSIGNIA PHARMACEUTICALS, LLC, priority 2024, published 2025)", "key": {"[1]": {"system": "PGE2 release from normal human chondrocytes", "experiment": "IL-1β-induced PGE2 release from normal human chondrocyte monolayers, 48 h, competitive EIA", "assay_type": "cell-based", "protocol": "Mechanical stress and inflammation are thought to sustain catabolic cycles of extracellular matrix deterioration during osteoarthritis. In particular, PGE2 correlates with increased protease production and discomfort or pain in osteoarthritis.\nAfter 48-hours, PGE2 release was evaluated by competitive EIA, and relative potency was calculated versus dose responses of Dex alone.\nAfter 48 hours, PGE2 release was evaluated by competitive enzyme immunoassay (EIA), and relative potency was calculated versus Dex alone.\nLac is commonly thought to be simply an end-product of anaerobic glycolysis; however, it may also have immunomodulatory effects and promote protein modifications that alter gene expression. The goal of this experiment was to determine how Lac supplementation affects early-phase, inflammatory, and late-stage redifferentiation in chondrocyte models. To establish how Lac may influence inflammation early in osteoarthritis, monolayers of normal human chondrocytes were exposed to Lac dose responses of up to 100 millimolar, concurrently with 0.5 nanograms per milliliter IL-1β for 48 hours. The release of PGE2 was then quantified using competitive EIA. To investigate how Lac affects transcriptional programs in dedifferentiated osteoarthritic chondrocytes, monolayer cultures and micromass pellets were treated for 14 days with 100 millimolar final concentrations of Lac, with and without 10 nanograms per milliliter transforming growth factor beta 3 (TGF-β3). Total RNA was then isolated, and relative expression of SOX9 or Col2a1 was calculated using qRT-PCR, normalized to GAPDH."}, "[2]": {"system": "PGE2 release from normal human chondrocytes", "experiment": "IL-1β-induced PGE2 release from normal human chondrocytes, 24 h, DA vs decanoate working solutions", "assay_type": "cell-based", "settings": "Homo sapiens, Chondrocyte, 25 micromolar, prepared in medium", "protocol": "The activity of DA working solutions prepared in either saline or lactated ringer's (LR) isotonic solutions was assessed. […] In addition, concentrated decanoate working solutions in saline or LR were prepared and added to the cultures at a final concentration of 25 micromolar. PGE2 release was then compared to matching points on the DA or decanoate medium as well as saline and LR controls."}, "[3]": {"system": "MCP1 in osteoarthritic human synoviocytes", "experiment": "IL-1β-induced MCP1 in osteoarthritic-synoviocytes", "assay_type": "cell-based", "settings": "IL-1β 0.5 ng/mL; 0.5, 0.8 or 1 millimolar DA; 0.1-100 nanomolar Dex"}, "[4]": {"system": "PGE2 release from osteoarthritic human synoviocytes", "experiment": "IL-1β-induced PGE2 and PGD2 release from osteoarthritic-synoviocytes", "assay_type": "cell-based", "settings": "for IC50: Homo sapiens, read-out: IC50 for PGE2 inhibition"}, "[5]": {"system": "IL-1β release from human THP1 macrophages", "experiment": "Two-hit (LPS then ATP) inflammasome activation model, IL-1β release from THP1 macrophages", "assay_type": "cell-based", "settings": "for IC50: Homo sapiens", "source_text": "The proinflammatory cytokine, IL-1β, is released from cells upon activation of the inflammasome, a multi-protein proinflammatory complex. A two-hit model of inflammasome activation in THP1 macrophages was developed that entails an overnight stimulation with LPS followed by a second proinflammatory stimulus, extracellular ATP, which drives inflammasome assembly and subsequent IL-1β release from the cells into the media."}, "[6]": {"system": "SOX9 expression in human osteoarthritic chondrocytes", "experiment": "SOX9 relative expression in high and low passage osteoarthritic chondrocytes, 7, 14 or 28 days", "assay_type": "cell-based", "settings": "high passage, dedifferentiated osteoarthritic chondrocytes with TGF-β3, 14 days", "source_text": "Media was exchanged bi-weekly. […] SOX9 is a transcription factor vital to the development and maintenance of cartilage and is required for chondrogenesis. SOX9 promotes chondrocyte survival and transcriptionally activates cartilage-specific genes. SOX9 is repressed in hypertrophic chondrocytes (i.e. terminally differentiated osteoblast-like cells)."}, "[7]": {"system": "prostaglandin I2 (PGI2) in primary human synoviocytes", "experiment": "PGI2 in IL-1β-stimulated primary human osteoarthritic synoviocytes, 24 h", "assay_type": "cell-based", "settings": "IL-1β 1 ng/ml", "protocol": "FIG. 25 is a bar graph that depicts the concentration of prostaglandin I2 (PGI2) present in primary human synoviocytes from patients with osteoarthritis that were stimulated with 1 ng/ml final concentration of IL-1β for 24 hours in the presence of varying concentrations of DA and Dex in view of controls. PGI2 concentration response mirrored PGE2 concentrations after DA treatment. […] It is noted that prostaglandin H2 (PGH2) was also tested and was not detected in either cell culture media or from cell lysates. Without being bound by theory, it is believed that PGH2 is an intermediate and is (near) immediately converted into downstream prostaglandins and therefore levels of PGH2 are not detectable."}, "Cyclooxygenase-2 (COX-2)": {"target": "Cyclooxygenase-2 (COX-2) (Homo sapiens, UniProt P35354)", "sequence (P35354 18-604, species assumed)": "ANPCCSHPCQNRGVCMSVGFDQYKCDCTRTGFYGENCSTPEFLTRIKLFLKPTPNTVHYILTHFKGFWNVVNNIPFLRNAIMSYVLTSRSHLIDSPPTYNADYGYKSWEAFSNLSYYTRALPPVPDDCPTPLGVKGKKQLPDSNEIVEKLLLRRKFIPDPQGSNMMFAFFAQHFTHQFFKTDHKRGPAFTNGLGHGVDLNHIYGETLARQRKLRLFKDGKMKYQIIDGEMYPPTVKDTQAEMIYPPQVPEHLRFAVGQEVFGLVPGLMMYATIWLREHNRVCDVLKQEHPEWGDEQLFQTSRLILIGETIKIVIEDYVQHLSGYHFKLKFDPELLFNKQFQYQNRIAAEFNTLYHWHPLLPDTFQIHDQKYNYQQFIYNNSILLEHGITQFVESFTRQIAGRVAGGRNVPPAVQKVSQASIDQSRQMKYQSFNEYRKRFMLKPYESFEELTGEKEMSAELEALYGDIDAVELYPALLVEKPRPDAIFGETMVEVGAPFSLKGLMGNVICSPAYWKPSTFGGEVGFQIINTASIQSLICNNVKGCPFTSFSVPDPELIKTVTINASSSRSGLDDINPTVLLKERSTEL", "experiment": "COX-2 inhibitor screen", "assay_type": "biochemical", "settings": "any of the concentrations tested; Celecoxib positive control", "excerpt": "Celecoxib (Celebrex) was used as a positive control for COX-2."}, "[8]": {"target": "PLA2 isolated from bee venom (Apis mellifera, UniProt P00630)", "sequence (P00630 34-167 limits assumed)": "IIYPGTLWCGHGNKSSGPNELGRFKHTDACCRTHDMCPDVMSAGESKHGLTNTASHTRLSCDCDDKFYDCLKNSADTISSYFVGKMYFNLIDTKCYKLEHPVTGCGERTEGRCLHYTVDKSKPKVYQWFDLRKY", "assay_type": "biochemical"}, "[9]": {"system": "PGE2 in primary human osteoarthritic synoviocytes", "experiment": "Early, pretreatment and intracellular vs secreted PGE2 in IL-1β-stimulated human osteoarthritic synoviocytes", "assay_type": "cell-based", "protocol": "The concentrations in FIG. 31A were measured at hour three.\nCells were also treated with IL-IRA which inhibits IL-1β by binding the cell-surface […] and inhibiting its dimerization with the IL-1 receptor (IL-1R), effectively blocking IL-1β signaling.\nFIG. 33 illustrates two bar graphs that depict the concentrations of PGE2 inside of the cell versus PGE2 that was secreted into the cell culture media. Specifically, the bar graph labeled “Intracellular” illustrates the concentrations of PGE2 inside of the cell and the bar graph labeled “Supernatent” illustrates the concentration of PGE2 that was secreted into the cell culture media. Synoviocytes were stimulated with IL-1β for 6 hours and then cell culture media harvested separately along with collecting cell lysates. […] To test this, the PGE2 concentrations inside of the cells and in the cell culture media were measured to compare them directly to each other."}, "[10]": {"system": "arachidonic acid (AA) in primary human synoviocytes", "experiment": "Early arachidonic acid in IL-1β-stimulated primary human osteoarthritic synoviocytes, 3 h", "assay_type": "cell-based", "settings": "IL-1β 1 ng/mL", "protocol": "Early concentrations of arachidonic acid (AA) present in primary human synoviocytes from patients with osteoarthritis that were stimulated with 1 ng/mL final concentration interleukin 1-beta (β) for 3 hours in the presence of varying concentrations of Dex and DA in view of controls are depicted in FIG. 32. The concentrations of AA in FIG. 32 were normalized to total protein content from the cell lysates using bicinchoninic acid (BCA)."}, "[11]": {"system": "Col2a1 expression in dedifferentiated osteoarthritic chondrocytes", "experiment": "Col2a1 relative expression in high passage osteoarthritic chondrocyte monolayer model with TGF-β", "assay_type": "cell-based, human", "settings": "TGF-β added to the model; 1 mM Try, 0.5 mM DA", "protocol": "(§1) These compounds were tested in a high passage osteoarthritic chondrocyte monolayer model, alone or in combination with other agents, for both transcriptional regulation of standard markers and IL-1β-induced PGE2 production."}, "[12]": {"system": "MMP13 expression in dedifferentiated osteoarthritic chondrocytes", "experiment": "MMP13 regulation in high passage osteoarthritic chondrocyte monolayer model, 28 days", "assay_type": "cell-based, human", "settings": "28 days of treatment; 1 mM Try, 0.5 mM DA", "protocol": "as §1"}, "[13]": {"settings": "cited from earlier work"}, "[14]": {"system": "MMP13 expression in human osteoarthritic chondrocytes", "experiment": "MMP13 relative expression in human osteoarthritic chondrocytes treated with DA and/or Try", "assay_type": "cell-based", "settings": "28-day monolayer culture; 0.5 mM DA, 1 mM Try", "description": "(§2) Total mRNA was then isolated at the indicated times, and qRTPCR was performed with primers specific for MMP13, Col2a1, and the housekeeping gene GAPDH. Relative expression was then calculated versus controls, with normalization to GAPDH."}, "[15]": {"system": "Col2a1 expression in human osteoarthritic chondrocytes", "experiment": "Col2a1 relative expression in human osteoarthritic chondrocytes treated with DA and/or Try with TGF-β3", "assay_type": "cell-based", "settings": "14-day monolayer culture with TGF-β3; 0.5 mM DA, 1 mM Try", "description": "as §2"}}, "note": "Like-named read-outs stand apart in the source and are kept apart here.", "data": [{"smiles": "CCCCCCCCCC(=O)O", "note": "[DA, decanoic acid]", "values": [{"measurement": "inhibition at 500 µM", "setting": "[1]; Homo sapiens, Chondrocyte, DA 500 micromolar final, IL-1β 500 pg/mL, 48 h", "result": 100, "unit": "%"}, {"measurement": "final concentration at which significant inhibition of PGE2 release was observed", "setting": "[1]; p-value≤0.05 versus medium controls", "result": 6, "unit": "µM"}, {"measurement": "inhibition at 25 µM", "setting": "[2]", "result": 62.4, "unit": "%"}, {"measurement": "effect on MCP1", "setting": "[3]", "result": "reduction in MCP1 in a dose dependent manner"}, {"measurement": "increase of DA potency by 100 picomolar Dex", "setting": "[4]", "result": 2.2, "unit": "×"}, {"measurement": "IC50", "setting": "[4]; DA alone, IL-1β 0.5 ng/mL", "result": 19.4, "unit": "µM"}, {"measurement": "IC50", "setting": "[4]; DA in the presence of 100 picomolar Dex", "result": 8.62, "unit": "µM"}, {"measurement": "DA concentration above which PGE2 and PGD2 release was inhibited", "setting": "[4]; IL-1β 0.5 ng/mL", "result": "above 1 micromolar"}, {"measurement": "increased DA potency by 25 nanomolar Dex", "setting": "[5]", "result": 1.917, "unit": "×"}, {"measurement": "IC50", "setting": "[5]; THP-1, DA alone, 0.02 to 1.8 millimolar, three independent experiments", "result": 125, "unit": "µM"}, {"measurement": "IC50", "setting": "[5]; THP-1, DA with addition of 25 nanomolar Dex", "result": 65, "unit": "µM"}, {"measurement": "IC50", "setting": "[5]; THP-1, repeated experiments comparing DA to sodium decanoate", "result": 172, "unit": "µM"}, {"measurement": "SOX9 expression", "setting": "[6]", "result": "increased SOX9 transcription"}, {"measurement": "secreted PGI2 levels", "setting": "[7]", "result": "decreases secreted PGI2 levels"}, {"measurement": "inhibition of COX-2 activity", "setting": "Cyclooxygenase-2 (COX-2)", "result": "no observed inhibition"}, {"measurement": "PLA2 activity inhibition", "setting": "[8]", "result": "no significant signs of PLA2 activity inhibition"}, {"measurement": "PGE2 release after pretreatment (5 minutes, 1 hour, or 2 hours) then IL-1β 10 minutes or 1 hour", "setting": "[9]; 200 nanomolar DA or 500 nanograms/milliliter IL-1RA, IL-1β 1 nanogram/milliliter", "result": "blocked the low-level activation"}, {"measurement": "intracellular versus secreted PGE2", "setting": "[9]; IL-1β 1 ng/ml, 6 hours", "result": "causes PGE2 to build up intracellularly instead of getting secreted"}, {"measurement": "PGE2 concentration", "setting": "[9]; measured at hour three, IL-1β 1 ng/mL", "result": "less than 5000 pg/ml"}, {"measurement": "AA concentration normalized to total protein", "setting": "[10]", "result": "lower than that of the control with IL-1β"}, {"measurement": "Col2a1 regulation", "setting": "[11]", "result": 26, "unit": "fold"}, {"measurement": "MMP13 regulation", "setting": "[12]", "result": 1.12, "unit": "fold"}, {"measurement": "pKa (negative log of acid dissociation constant)", "setting": "[13]", "result": "about 4.9"}]}, {"smiles": "N[C@@H](Cc1c[nH]c2ccccc12)C(=O)O", "note": "[Try, tryptophan]", "values": [{"measurement": "Col2a1 regulation", "setting": "[11]", "result": "−1.36", "unit": "fold"}, {"measurement": "MMP13 regulation", "setting": "[12]", "result": "−3.32", "unit": "fold"}, {"measurement": "Observed Relative expression of MMP13", "setting": "[14]", "result": "−2.6", "unit": "fold"}, {"measurement": "Observed Relative expression of Col2a1", "setting": "[15]", "result": "−1.4", "unit": "fold"}]}]}
